Legend:
Test in all cases: Oxford cup inhibition zone test of antibacterial Hermetia illucens peptide
Type in all cases: cell-based
Conditions in all cases: positive control, 1 mg/ml of chloramphenicol
Vibrio alginolyticus = system: Vibrio alginolyticus
Text: (§1) Article number (Art. No.) of Staphylococcus aureus: CICC 10306; Art. No. of Escherichia coli: CICC 10372; Art. No. of Vibrio alginolyticus: CICC 10484.
(§2) 1. Extraction of the Antibacterial Peptide of the Larval Hermetia Illucens Paste
(§3) (1) Preparation of an antibacterial peptide extraction solution (10% acetic acid and 0.01 mol/L Na2EDTA).
(§4) (2) The fermentation liquor of larval Hermetia illucens paste in the untreated group and the Aspergillus oryzae fermentation group of Example 2 was mixed with the antibacterial peptide extraction solution well (v: v=1:10), respectively, and liquid-solid extracted for half an hour at 200 rpm and 37° C., then transferred to a centrifugal machine (3500 rpm, 25 min); supernatant was collected as a crude extraction solution of the antibacterial peptide. The crude extraction solution was further frozen-dried to obtain the antibacterial Hermetia illucens peptide.
(§5) 2. Determination of Antibacteral Activity of the Antibacterial Hermetia Illucens Peptide
(§6) […] The concentration of the Staphylococcus aureus solution and Escherichia coli solution as well as Vibrio alginolyticus solution was determined 1.0×10^9 CFU/mL, 1.0×10^9 CFU/mL, and 1.0×10^7 CFU/mL, respectively; proper amount of the Staphylococcus aureus solution and Escherichia coli solution were absorbed and evenly coated on LB media, and the Vibrio alginolyticus solution was coated on a TCBS plate. An Oxford cup having a diameter of 7.5 mm was slightly placed on the LB plate, added with an equivalent amount of the antibacterial Hermetia illucens peptide, and cultured in a 37° C. thermostatic incubator for 10 hours, then the diameter of inhibition zones was observed and measured.

Escherichia coli = system: Escherichia coli
Text: as §1, §2, §3, §4, §5, §6

Staphylococcus aureus = system: Staphylococcus aureus
Text: as §1, §2, §3, §4, §5, §6

Q: What does the source list for `O=C(N[C@H](CO)[C@H](O)c1ccc([N+](=O)[O-])cc1)C(Cl)Cl` [chloramphenicol]?
A: Diameter of inhibition zone (Vibrio alginolyticus): 26 mm; Diameter of inhibition zone (Escherichia coli): 17 mm; Diameter of inhibition zone (Staphylococcus aureus): 16 mm
